From publication PMC7570852, “Ruthenium(II)/(III) DMSO-Based Complexes of 2-Aminophenyl Benzimidazole with In Vitro and In Vivo Anticancer Activity” (Molecules, 2020)
Marks after values point to notes of the source that are not given here.

Assays:
[1] = tested on: human breast cancer (MCF7) cells; test: MTT cell viability assay, MCF7; type: cell-based; conditions: 24 h
Method: (§1) The cytotoxic effect of the Hapbim ligand and its complexes (1) and (2) on human breast cancer (MCF7), human colorectal cancer (Caco2), and human normal liver (THLE-2) cell lines was evaluated by the MTT assay. The cells were cultured in a 96-well plate (1 × 10^4 cells/well, 100 μL/well) containing DMEM medium provided with 10% fetal bovine serum, and 1% penicillin/streptomycin. Then, the cells were incubated at 37 °C for 24 h in a CO2 incubator under 5% CO2, 95% air until reaching a confluence of 70–80%. A 20 μL volume of each compound at different concentrations (from 5 to 400 μM for the cancer cell and from 600 to 1000 μM for the normal cells) was added and the cells were re-incubated for a further 24 h. After the incubation period, the cells were incubated again with 5 mg/mL of MTT for 4 h and then the medium was replaced with 100 μL DMSO and vortexed for 20 min. Finally, the absorbance was recorded at 570 nm using the microplate reader. […] To calculate the cell inhibition percentage, the following equation was used:% Cell inhibition = 100 − % cell viability ((At − Ab)/(Ac − Ab)) × 100%)(4) where At is the absorbance value of tested compound; Ab is the absorbance value of blank; Ac is the absorbance value of the control.

[2] = tested on: human colorectal cancer (Caco2) cells; test: MTT cell viability assay, Caco2; type: cell-based
Method: as §1

[3] = Maximum tolerated dose in healthy mice; type: in vivo
Method: These mice were examined daily for any sign of toxicity and weighed every two days. […] Therefore, doses of 6, 12, and 18 mg/kg were used in subsequent experiments.

[4] = Serum liver and kidney function tests, healthy mice; type: in vivo; conditions: mean ± SEM
Method: The mice were divided into the following eight groups (10 mice in each group): • Control group: Mice were intraperitoneally injected with a vehicle (2% DMSO + sterile saline) for 12 days. • I, II, and III control groups: Healthy normal mice were intraperitoneally injected with 6, 12, and 18 mg/kg of complex (2), respectively, for 12 days. • EAC group: Mice were intraperitoneally injected by a single dose of 2.5 × 10^6 viable Ehrlich ascites carcinoma (EAC) cells in PBS. In brief, EAC cells were withdrawn from the EAC mouse’s intraperitoneal cavity, washed, and centrifuged three times with sterile saline. Then, the pellets were suspended in sterile PBS and counted by the trypan blue exclusion assay, which confirmed that the viability of the cells was 98%. • I, II, and III treated groups: Firstly, 30 healthy mice were intraperitoneally injected with a single dose of 2.5 × 10^6 viable EAC cells. After one day; the mice were divided into I, II, and III treated groups (10 mice each group), intraperitoneally injected with 6, 12, and 18 mg/kg Ru(III) complex, respectively, for 12 days.
The animals were monitored for EAC growth by measuring abdominal size. At the end of the experiment all animals were fasted overnight then sacrificed. Serum samples were collected to study the biological parameters such as liver and kidney function as well as antioxidant enzyme activity. Liver samples from each group were frozen immediately in liquid nitrogen for molecular analysis.
Liver function tests. Serum GPT and GOT activities were measured by the method of Murray with a standard kit. The enzyme activities were estimated by measuring the decrease in absorbance of NADH at 340 nm. Bilirubin concentration was estimated by the colorimetric method of Kaplan et al.. Albumin concentration was measured colorimetrically by the color change of bromocresol from yellow-green to green-blue.
Kidney function tests. Creatinine was estimated colorimetrically by reacting with alkaline picrate forming a red complex. Urea was hydrolyzed enzymatically into ammonia which reacts with several compounds to form a green complex that can be measured colorimetrically. Uric acid was estimated by the enzymatic method of Schultz.

Bax gene expression = test: Real-time qPCR of liver tissue, Bax; type: in vivo; conditions: liver tissue of EAC-bearing mice, vs untreated
Method: (§2) RNA was isolated from liver tissues using a RNeasy Mini kit. The integrity and purity of RNA were assessed by 1% agarose gel electrophoresis and nanodrop, respectively. The obtained RNA was reverse transcribed to yield cDNA using Quantiscript reverse transcriptase. Specific primers for Bax, caspase 3, and Bcl2 genes in addition to the housekeeping gene, β actin were designed by the Primer 3 web-based tool based on the published mice sequences (Table 5). Quantitative real-time PCR (qPCR) was performed using QuantiTect SYBR Green qPCR Master Mix in a StepOnePlus real-time PCR system and the melting curve condition and fold change calculation were done as previously described.

Bcl2 gene expression = test: Real-time qPCR of liver tissue, Bcl2; type: in vivo; conditions: liver tissue of EAC-bearing mice, vs untreated
Method: as §2

[5] = tested on: caspase 3 gene expression; test: Real-time qPCR of liver tissue, caspase 3; type: in vivo; conditions: liver tissue of EAC-bearing mice, vs untreated
Method: as §2

[6] = II control 12 mg/kg i.p. 12 days
[7] = III control 18 mg/kg i.p. 12 days

**Q.** For CS(C)=O.Nc1ccccc1-c1nc2ccccc2[nH]1.O.[Cl][Ru]([Cl])[Cl] [(2), [Ru(III)Cl3(DMSO)(Hapbim)]·H2O], which “IC50 MCF-7” value [1] is on record?
**A.** 118 ± 8 µg/mL

**Q.** What about the IC50 ([1]; read-out: IC50 MCF-7) of the same compound?
**A.** 230 ± 10 µM

**Q.** What about the IC50 ([2]; MTT, 24 h) of the same compound?
**A.** 250 ± 10 µM

**Q.** And the “IC50 Caco2” value ([2]; MTT, 24 h)?
**A.** 129 ± 8 µg/mL

**Q.** And the “Therapeutic index: IC50 of THLE-2 cell/IC50 of Caco2” value ([2]; in vitro)?
**A.** 9.95

**Q.** What about the “toxicity on repeated dosing” value ([3]; healthy mice, 6, 12 and 18 mg/kg i.p., until the 12th day) of the same compound?
**A.** No weight loss or signs of toxicity

**Q.** What about the “toxicity on repeated dosing” value ([3]; healthy mice, 30 and 40 mg/kg i.p.) of the same compound?
**A.** toxic after 3-5 days and all the animals were dead on the fifth day

**Q.** And the Albumin ([4]; I control 6 mg/kg i.p. 12 days)?
**A.** 2.3 ± 0.1 g/dL

**Q.** And the Bilirubin ([4]; I control 6 mg/kg i.p. 12 days)?
**A.** 0.15 ±0.02 ^b mg/dL

**Q.** What about the Creatinine ([4]; I control 6 mg/kg i.p. 12 days) of the same compound?
**A.** 0.37 ±0.1 ^b mg/dL

**Q.** And the GOT ([4]; I control 6 mg/kg i.p. 12 days)?
**A.** 41.8 ± 2.9 ^b U/L

**Q.** What about the GPT ([4]; I control 6 mg/kg i.p. 12 days) of the same compound?
**A.** 15.6 ± 1.6 ^b U/L

**Q.** What about the Urea ([4]; I control 6 mg/kg i.p. 12 days) of the same compound?
**A.** 33.5 ± 0.7 ^b mg/dL

**Q.** What about the “Uric Acid” value ([4]; I control 6 mg/kg i.p. 12 days) of the same compound?
**A.** 2.9 ± 0.1 ^b mg/dL

**Q.** What about the Albumin [4, 6] of the same compound?
**A.** 2.7 ± 0.1 ^b g/dL

**Q.** And the Bilirubin [4, 6]?
**A.** 0.13 ± 0.02 ^b mg/dL

**Q.** And the Creatinine [4, 6]?
**A.** 0.7 ± 0.02 mg/dL

**Q.** What about the GOT [4, 6] of the same compound?
**A.** 54.9 ± 2.2 U/L

**Q.** What about the GPT [4, 6] of the same compound?
**A.** 17.2 ± 0.5 ^b U/L

**Q.** And the Urea [4, 6]?
**A.** 31.7 ± 1.2 ^b mg/dL

**Q.** What about the “Uric Acid” value [4, 6] of the same compound?
**A.** 2.97 ± 0.1 ^b mg/dL

**Q.** And the Albumin [4, 7]?
**A.** 2.3 ± 0.1 g/dL

**Q.** What about the Bilirubin [4, 7] of the same compound?
**A.** 0.26 ± 0.02 mg/dL

**Q.** What about the Creatinine [4, 7] of the same compound?
**A.** 0.75 ± 0.02 mg/dL

**Q.** What about the GOT [4, 7] of the same compound?
**A.** 68.8 ± 3.6 U/L

**Q.** And the GPT [4, 7]?
**A.** 19.6 ± 0.3 U/L

**Q.** And the Urea [4, 7]?
**A.** 36.7 ± 1.6 ^b mg/dL

**Q.** And the “Uric Acid” value [4, 7]?
**A.** 2.77 ± 0.1 ^b mg/dL

**Q.** And the “Bax mRNA level” value (Bax gene expression)?
**A.** significant increases

**Q.** And the Bcl2 gene expression (Bcl2 gene expression)?
**A.** significant dose-dependent reduction

**Q.** What about the “caspase 3 mRNA level” value [5] of the same compound?
**A.** significant increases
